Each structure is given as a SMILES string.

Series [1] concerns cytochrome P450 (CYP) isoenzymes. Type of series: in vitro ADME. Conditions: human liver microsomes; CYP1A1/2, CYP2C9, CYP2C19, CYP2D6 and CYP3A4. In general terms: Liver microsomes are vesicles of endoplasmic reticulum, rich in cytochrome P450 enzymes.
In series [2] the test system is CCNB1, CCNB2 and CDC20 protein. Kind of series: immunoblotting of CCNB1, CCNB2 and CDC20. It is filed as cell-based. The following applies: breast cancer cell lysates. An excerpt: Fig. 3 ACK1 inhibitor suppresses expression of cell cycle genes. A Cell lysates from vehicle or (R)-9b treated cells were immunoblotted using CCNB1, CCNB2 and CDC20 antibodies. B HCC-1395 and MDA-MB-231 cells were transfected with ACK1 and scrambled siRNAs, followed by qPCR using ACK1 primers, with 18S rRNA as internal control. C siRNA transfected cells were subjected to western blotting using ACK1 antibody, with Actin as loading control. RNA from silenced cells, (D) HCC-1395 and (E) MDA-MB-231 was subjected to qPCR using CCNB1, CCNB2 and CDC20 primers. 18S rRNA was used as housekeeping control. For (A) and (C), representative images of three independent experiments are shown. For (B, D, E), data are represented as the mean ± SEM. *p < 0.05, **p < 0.01, ***p < 0.001, unpaired two-tailed Student’s t test.
Vehicle or (R)-9b (5 µM, overnight in serum free media) treated cells were lysed by sonication in receptor lysis buffer (RLB) and lysates were fractionated by SDS-PAGE, and transferred onto a PVDF membrane (Immobilon). […]
(In general: Immunoblotting shows a protein as a band on a membrane.)

For series [3], the system named is luciferase expressing 4T1 cells. Put plainly: orthotopic lung metastasis study. It is filed as in vivo, female Balb/c mice. The following applies: 24 mg/kg subcutaneously, 2 weeks. As to the method:
In addition, we performed fluorescent imaging on mice orthotopically injected with luciferase expressing 4T1 cells (5 × 10^5). Two weeks after inoculation into the mammary fat pads, mice were subcutaneously injected with vehicle (6% Captisol) or (R)-9b (24 mg/kg) five times a week for 2 weeks. Mice were then administered an intraperitoneal injection of D-luciferin, lungs were excised and imaged for metastases.
Female Balb/c mice were orthotopically injected with luciferase expressing 4T1 cells (5 × 10^5). Two weeks after inoculation into the 5th mammary fat pads, mice were subcutaneously injected with vehicle (6% captisol) or (R)-9b (24 mg/Kg) five times a week, for 2 weeks. Mice were then intraperitoneally injected with D-luciferin, humanely euthanized, lungs were excised and assessed for metastases using both fluorescent in vivo imaging system and H&E staining.

Series [4] has as its system pY88-H4 marks in CXCR4 promoter region. Kind of series: ChIP-qPCR with pY88-H4 antibody for CXCR4 gene. Conditions: breast cancer cells. It is filed as cell-based. The procedure:
(§1) Fig. 7 ACK1 inhibitor overcomes palbociclib-resistant breast cancer growth and metastasis. A 3 × 10^6 MDA-MB-468 cells were injected in the 4th inguinal mammary fat pad of female SCID mice. Once the tumors were palpable, the mice were treated with either vehicle (Captisol; n = 7), Palbociclib at 80 mg/kg (n = 6), or (R)-9b at 36 mg/Kg (n = 6) orally. In addition, mice were injected with (R)-9b at 24 mg/Kg (n = 7) subcutaneously. Mice were treated five times a week, for 22 days. B, C The tumors were harvested and photographed, and the weights were recorded. D Vehicle or (R)-9b treated breast cancer cells were subjected to ChIP using pY88-H4 antibody, followed by qPCR for CXCR4 gene. […] H Graphical quantitation of lung metastatic deposit. […] The metastases were assessed using IVIS. […] For (A, C–F, I), p values were calculated using unpaired two-tailed Student’s t test.
Cell pellets were resuspended in RLB buffer and sonicated and the soluble chromatin was incubated with antibodies and Protein-G/A magnetic beads. […] The size and quality of the library was evaluated using the Agilent BioAnalyzer (Agilent Technologies, Inc., Santa Clara, CA), and the library was quantitated with the Kapa Library Quantification Kit. Each enriched DNA library was then sequenced on an Illumina NextSeq 500 sequencer to generate 40–50 million 75-base paired-end reads (Illumina, Inc., San Diego, CA). […]

Series [5] concerns CXCR4 mRNA. Put plainly: qRT-PCR of CXCR4 in MDA-MB-231 cells. Type of series: cell-based. The procedure: as §1, with “gene. E CXCR4 mRNA transcript levels in vehicle or (R)-9b treated MDA-MB-231 cells. 18S rRNA was used as housekeeping gene. F MDA-MB-231 cells were transfected with ACK1 or scrambled siRNA, followed by qRT-PCR to determine CXCR4 mRNA transcript levels.” for “gene.”
Real-time quantitative PCR analyses were performed using the ABI PRISM 7900HT Sequence Detection System (Applied Biosystems) as described earlier. […] Data were analyzed using SDS software version 2.2.2 and exported into an Excel spreadsheet. […]

On to `CN1CCN(c2ccc(Nc3ncc(Cl)c(NC[C@H]4CCCO4)n3)cc2)CC1` [(R)-9b], for which the “potential to inhibit cytochrome P450 (CYP) isoenzymes” value in series [1] is “low potential to inhibit”. The “CCNB1, CCNB2 and CDC20 protein abundance” value in series [2] is recorded as “decrease in respective protein abundance”. Also, the “lung tumor nodules (H&E)” value in series [3] is “absent”. Moreover, the “lung luminescence (photons/sec)” value in series [3] (five times a week) is “significant decrease”. For the same compound, in series [4], the “pY88-H4 epigenetic marks in CXCR4 promoter region” value is “erased these marks”. For the same compound, in series [5], the CXCR4 transcription result is “inhibited CXCR4 transcription”.

For the origin of these results see paper PMC10348910, “Epigenetic reprogramming of cell cycle genes by ACK1 promotes breast cancer resistance to CDK4/6 inhibitor” (Oncogene, 2023).
